Measurements taken from patent publication US8053212B1, “Non-standard nucleoside analogs with reduced epimerization” (priority 2004, dated 2011).

Assays:
[1] = not given; remark: listed apart in the source
[2] = Epimerization at neutral pH followed by 1H NMR in D2O; assay type: physicochemical; settings: room temperature, after one week
Procedure: To measure the rate of epimerization of the nucleoside at neutral pH, a sample was dissolved in D2O and stored at room temperature. The ^1H NMR was measured after several time intervals. […] In particular, the NMR signal arising from H-6 of the heterocycle remained unchanged.

SMILES | fraction protonated at physiological pH [%] | pseudo first order rate constant of initial epimerization, kpH2 ([1]; pH 2.0, 37° C., aqueous) | slope of replot of logk versus pH ([1]; pH 2.0 to 5.0, 37° C.) | pseudo first order rate constant of initial epimerization, kpH5 ([1]; pH 5.0, 37° C., aqueous) | epimerization at high pH ([1]; pH 11.0, 23° C., 14 days, HPLC) | change of 1H NMR spectrum (epimerization) [2] | "end" value: fraction of starting material remaining at end of reaction ([1]; buffer, 336 h, pH 2)
Nc1[nH]c(=O)c([C@H]2C[C@H](O)[C@@H](CO)O2)cc1[N+](=O)[O-] | > 80 | ≈ 10^−4 s^−1 | −0.971 | ≈ 2×10^−7 s^−1 | no epimerization was detected | did not change | –
Nc1[nH]c(=O)c([C@H]2C[C@H](O)[C@@H](CO)O2)cc1[N+](=O)[O-] [nucleoside 4, 6-amino-5-nitro-3-(1′-beta-D-2′-deoxyribofuranosyl)-2(1H)-pyridone] | – | – | – | – | – | – | 0.09
